Results reported in US7056938B1, “Method for scavenging radicals with urocanic acid, derivatives and analogues” (Academisch Ziekenhuis Bij De Univ., priority 1999, dated 2006).

Experiments:
[1] = photooxidation of UCA with hydrogen peroxide under UV irradiation (HPLC); type: physicochemical; settings: for YIELD OF PHOTOOXIDATION PRODUCTS: sum of 8 major peaks; for PHOTOISOMERIZATION cis-UCA / PHOTOISOMERIZATION trans-UCA: trans-UCA starting material
Protocol: Trans-UCA and cis-UCA were separated from each other and from several UCA oxidation products on a 4.6×250 mm Alltima C18 and Luna C18 reversed-phase column (Alitech, Deerfield, Ill. and Phenomenex, Torrence, Calif., resp.) with a flow of 0.8 mL/min, delivered by P-3500 HPLC-pumps (Pharmacia, Uppsala, Sweden). Samples of 20 to 200 μL were injected by a Promis II autosampler (Spark Holland, Emmen, The Netherlands) and chromatographic data were recorded on an SP 4270 integrator (Spectra Physics, San Jose, Calif.). Peak area data from samples were only processed under identical HPLC circumstances. A UV-detector (Applied Biosystems, model 759A, Foster City, Calif.) was set for 226 nm detection. Isocratic elution was performed with 10 mM ammonium formate buffer, containing 0.2–0.8 mM tetrabutylammonium(TBA)formate and 1% acetonitrile (pH 7.2). Collected fractions were acidified with formic acid up to a final concentration of 100 mM and passed through C18 could phase extraction columns (J T Baker, Deventer, The Netherlands) in order to remove TBA.
A 1-cm quartz cuvette, filled with 1.4 mL sample, was placed in the parallel beam of a filtered 1000 W Xenon are lamp (Oriel, Stratford, Conn.). The samples were magnetically stirred during irradiation. To minimize infrared (heat) and visible radiation, the beam was passed through a water filter (7 cm), reflected by a dichroic mirror and filtered through a 1=mm UG11 filter. Short wave cut off was achieved by passing the beam through WG280, WG305 or WG335 filters with 3 mm thickness each (Schott-Jena, Mainz, Germany). Xenon lamp emission filtered through WG280 included UV-C, UV-B and UV-A; through WG305 UV-B and UV-A and through WG335 only UV-A was included. Two narrow bands in the UV-B and UV-A spectral regions were selected to monitor the xenon-arc emission. The probe of a calibrated EG&G 550 radiometer (Salem, Mass., USA) was equipped with a neutral density filter and narrow band filter type UV-M-IL (Schott-Jena) with a transmission maximum of 21% at 303 nm and a half-width of 11.5 nm to monitor UV-B or with a type UV-PIL (Schott-Jena) with a transmission maximum of 46% at 363 nm and a half-width of 7.7 nm to monitor UV-A. Transmission spectra of the optical filters were checked on a Perkin Elmer Lambda 40 UV/VIS spectrometer (Norwalk, Conn., USA).
Additional irradiations were performed with fluorescent tubes TLI2, used as a UV-B source, and TL10R, used as a UV-A source (Philips, Eindhoven, The Netherlands), on samples that were magnetically stirred in small Petri dishes. The UV-B output was measured with an IL 443 phototherapy radiometer, fitted with a SEE 1240 silicon detector probe and the UV-A output with an IL 442A phototherapy radiometer with a SEE 115 detector probe (International Light, Newburyport, Mass., USA).
The O—O bond of hydrogen peroxide can be cleaved by UV radiation to yield hydroxyl radicals. Because both UCA isomers could effectively scavenge hydroxyl radicals, it is to be expected that UCA will be degraded and/or converted into oxidation products. The ability of simulated solar UV radiation to convert trans-UCA in the presence of hydrogen peroxide into photooxidation products was tested in vitro and analyzed by reversed-phase HPLC analysis. Hydrogen peroxide eluted close to void volume and trans-UCA and cis-UCA eluted with markedly different elution times of 20 and 64 min (FIGS. 3a–d). […] Exposing 80 μM trans-UCA in the absence of hydrogen peroxide at pH 7.2 to WG280-filtered xenon-arc emission (including UV-C and UV-B) resulted only and in the formation of cis-UCA via the process of photoisomerization (FIG. 3b). […] main photooxidation products were recognized as new peaks based on retention times and were assigned in the chromatogram (FIG. 3c).
In contrast, when exposures were performed with simulated solar radiation from which both UV-C and UV-B were blocked out by a WG335 filter, virtually no photo-oxidation products were found (FIG. 3d). […]

[2] = hydroxyl-radical-generating systems with copper ions (Cu2+); type: physicochemical
Protocol: UCA isomers (10 or 40 μM) were oxidized with a hydroxyl-radical-generating system that consisted of various concentrations of ferrous ions (10–500 μM) and a fixed hydrogen peroxide concentration of 500 μM (the Fenton reagent), either in a sodium phosphate (10 or 20 mM) medium of pH 7.2, or in ultrapure water. In addition, two hydroxyl-radical-generating systems with copper ions (Cu^2+) were used, consisting of 50 μM Cu^2+ with either 500 μM hydrogen peroxide or 5 mM ascorbic acid.
Evaluation of the data was difficult with the ascorbate system, because several interfering peaks had occurred in the chromatograms, which were probably derived from ascorbic acid and its oxidation products.
When another hydroxyl-radical-generating system, based on copper ions (Cu^2+) was investigated, the combination of Cu^2+/ascorbic acid/hydrogen peroxide caused a large breakdown or trans-UCA (Table 3) and a moderate yield of UCA oxidation products, in favor of ImCOOH. […] For the situation in vivo, one must remember that the epidermal copper content is lower than iron (29).

[3] = TL10R unfiltered, 320–440 nm, UV-B 0, UV-A 324
[4] = TL12 unfiltered, 280–366 nm, UV-B 3.6, UV-A 4.5
[5] = Xe arc W3305, 292–400 nm, UV-B 18, UV-A 70
[6] = Xe arc W3335, 320–400 nm, UV-B 0, UV-A 66
[7] = Xe arc W3280, 270–400 nm, UV-B 37, UV-A 70

## O=C(O)/C=C/c1cnc[nH]1 [trans-Urocanic acid, Trans-urocanic acid]
[1]; [3]
  YIELD OF PHOTOOXIDATION PRODUCTS: 16 (±5) A.U.
  PHOTOISOMERIZATION cis-UCA: 16%
  PHOTOISOMERIZATION trans-UCA: 84 (±7) %
[1]; [4]
  YIELD OF PHOTOOXIDATION PRODUCTS: 149 (±51) A.U.
  PHOTOISOMERIZATION cis-UCA: 59%
  PHOTOISOMERIZATION trans-UCA: 41 (±4) %
[1]; [5]
  YIELD OF PHOTOOXIDATION PRODUCTS: 239 (±14) A.U.
  PHOTOISOMERIZATION cis-UCA: 53%
  PHOTOISOMERIZATION trans-UCA: 47 (±3) %
[1]; [6]
  YIELD OF PHOTOOXIDATION PRODUCTS: 45 (±8) A.U.
  PHOTOISOMERIZATION cis-UCA: 40%
  PHOTOISOMERIZATION trans-UCA: 60 (±2) %
[1]; extensive UCA breakdown (<4% of each UCA isomer left over)
  lowering of initial weight after severe photooxidation: ~14%
[1]; trans-UCA 40 μM, hydrogen peroxide 500 μM, TL10R unfiltered, 320–440 nm, UV-B 0, UV-A 324 kJ · M^−1
  UCA LEFT OVER: 99 (±3) %
[1]; trans-UCA 40 μM, hydrogen peroxide 500 μM, TL12 unfiltered, 280–366 nm, UV-B 3.6, UV-A 4.5 kJ · M^−1
  UCA LEFT OVER: 90 (±20) %
[1]; trans-UCA 40 μM, hydrogen peroxide 500 μM, Xe arc W3280, 270–400 nm, UV-C,-B,-A included, UV-B 37, UV-A 70 kJ · M^−1
  UCA LEFT OVER: 43 (±11) %
[1]; trans-UCA 40 μM, hydrogen peroxide 500 μM, Xe arc W3280, 270–400 nm, UV-B 37, UV-A 70
  YIELD OF PHOTOOXIDATION PRODUCTS: 347 (±58) A.U.
[1]; trans-UCA 40 μM, hydrogen peroxide 500 μM, Xe arc W3305, 292–400 nm, UV-B,-A included, UV-B 18, UV-A 70 kJ · M^−1
  UCA LEFT OVER: 64 (±6) %
[1]; trans-UCA 40 μM, hydrogen peroxide 500 μM, Xe arc W3335, 320–400 nm, only UV-A included, UV-B 0, UV-A 66 kJ · M^−1
  UCA LEFT OVER: 95 (±5) %
[1]; [7]
  PHOTOISOMERIZATION cis-UCA: 59%
  PHOTOISOMERIZATION trans-UCA: 43 (±2) %
[2]; Cu2+ (50 μM) and ascorbic acid (5 mM) without hydrogen peroxide
  trans-UCA left: 3%
[2]; Cu2+ (50 μM) and hydrogen peroxide (500 μM), without ascorbic acid
  trans-UCA left: 88%
